Source: patent US10219513B2, “Safening 4-amino-3-chloro-6-(4-chloro-2-fluoro-3-methoxyphenyl)-5-fluoropyridine-2-carboxylic acid compositions in Brassica species and methods of use thereof” (Dow AgroSciences LLC, priority 2016, dated 2019)

Legend:
[1] = tested on: Brassica alboglabra (kale/Chinese kale, BRSAG); assay: Greenhouse postemergence application, visual injury after 20-22 d, BRSAG; details: for % Visual Injury Obs / Obs % visual injury: BRSAG
Experimental: (§1) Seeds of the desired test plant species were planted in Sun Gro MetroMix® 306 planting mixture, which typically has a pH of 6.0 to 6.8 and an organic matter content of about 30 percent, in plastic pots with a surface area of 103.2 square centimeters (cm^2). […] The plants were grown for 7-36 days (d) in a greenhouse with an approximate 14-hour (h) photoperiod which was maintained at about 23° C. during the day and 22° C. during the night. Nutrients and water were added on a regular basis and supplemental lighting was provided with overhead metal halide 1000-Watt lamps as necessary. The plants were employed for testing when they reached the second or third true leaf stage.
(§2) An aliquot of formulated benzyl 4-amino-3-chloro-6-(4-chloro-2-fluoro-3-methoxyphenyl)-5-fluoropyridine-2-carboxylate (florpyrauxifen-benzyl; 300 grams active ingredient per liter (g ai/L) suspension concentrate (SC)) was placed in a 25 mL glass vial and diluted in a volume of 1.25% (v/v) aqueous Agri-dex crop oil concentrated to obtain a stock solution. […] The concentrated stock solutions were diluted with an aqueous mixture of 1.25% v/v of aqueous Agri-dex crop oil concentrate to provide the appropriate application rates. Compound requirements are based upon a 12 milliliter (mL) application volume at a rate of 187 liters per hectare (L/ha). Stock solutions of the formulated materials were prepared following the same procedure. Spray solutions of the compound mixtures were prepared by adding the stock solutions to the appropriate amount of dilution solution to form a 12 mL spray solution. Formulated compounds were applied to the plant material with an overhead Mandel track sprayer equipped with 8002E nozzles calibrated to deliver 187 L/ha over an application area of 0.503 square meters (m^2) at a spray height of 18 inches (43 centimeters (cm)) above average plant canopy. Control plants were sprayed in the same manner with the solvent blank.
(§3) The treated plants and control plants were placed in a greenhouse as described above and watered by sub-irrigation to prevent wash-off of the test compounds. After 20-22 d, the condition of the test plants as compared with that of the control plants was determined visually and scored on a scale of 0 to 100 percent where 0 corresponds to no injury and 100 corresponds to complete kill. Colby's equation was used to determine the herbicidal effects expected from the mixtures.
(§4) Benzyl 4-amino-3-chloro-6-(4-chloro-2-fluoro-3-methoxyphenyl)-5-fluoropyridine-2-carboxylate (florpyrauxifen-benzyl, 300 g ai/L SC) was combined in two-, three-, and four-way mixtures with one or more of the following: clopyralid-olamine (as Lontrel™ 35A Herbicidal Concentrate), quinclorac (as Facet 75DF), isoxadifen-ethyl (100 g/L SC), cloquintocet-mexyl (120 g/L EC) or mefenpyr-diethyl (as mefenpyr-diethyl 15WP). The mixtures were applied to kale/Chinese kale (Brassica alboglabra, BRSAG), Juncea canola or brown mustard (Brassica juncea, BRSJU), rutabaga (Brassica napus var. napobrassica, BRSNA), all varieties of canola and oilseed rape (Brassica napus, BRSNN), Nexera™ canola (Brassica napus, BRSNN-NEX), winter oilseed rape (Brassica napus, BRSNW), Roundup Ready® canola (Brassica napus, RR-BRSNN), and turnip or Polish canola (Brassica rapa, BRSRR), and the phytotoxicity of the compositions was measured.
(§5) Colby's equation was used to determine the herbicidal effects expected from the mixtures evaluated in the described trials (Colby, S. R. Calculation of the synergistic and antagonistic response of herbicide combinations. Weeds 1967, 15, 20-22.).
(§6) The following equation was used to calculate the expected activity of mixtures containing two active ingredients, A and B: Expected=A+B−(A×B/100) • A=observed efficacy of active ingredient A at the same concentration as used in the mixture; • B=observed efficacy of active ingredient B at the same concentration as used in the mixture.

[2] = tested on: Brassica napus var. napobrassica (rutabaga, BRSNA); assay: Greenhouse postemergence application, visual injury after 20-22 d, BRSNA; details: for % Visual Injury Obs / Obs % visual injury: BRSNA
Experimental: as §1, §2, §3, §4, §5, §6

[3] = tested on: Brassica napus (all varieties of canola and oilseed rape, BRSNN); assay: Greenhouse postemergence application, visual injury after 20-22 d, BRSNN; details: for % Visual Injury Obs / Obs % visual injury: BRSNN
Experimental: as §1, §2, §3, §4, §5, §6

[4] = tested on: Brassica napus (winter oilseed rape, BRSNW); assay: Greenhouse postemergence application, visual injury after 20-22 d, BRSNW; details: for % Visual Injury Obs / Obs % visual injury: BRSNW
Experimental: as §1, §2, §3, §4, §5, §6

[5] = tested on: Brassica napus (Nexera canola, BRSNN-NEX); assay: Greenhouse postemergence application, visual injury after 20-22 d, BRSNN-NEX; details: for % Visual Injury Obs / Obs % visual injury: BRSNN-NEX
Experimental: as §1, §2, §3, §4, §5, §6

[6] = postemergence application, greenhouse, application rate (g ai/ha) varies

O=C(O)c1c(Cl)ccc2cc(Cl)cnc12 [Quinclorac, 3,7-dichloro-8-quinolinecarboxylic acid]
0%: % Visual Injury Obs ([1]; 50 g ai/ha) | % Visual Injury Obs ([1]; 100 g ai/ha) | % Visual Injury Obs ([1]; 200 g ai/ha) | Obs % visual injury ([1]; partner alone 50 g ai/ha) | Obs % visual injury ([1]; partner alone 100 g ai/ha) | Obs % visual injury ([1]; partner alone 200 g ai/ha) | % Visual Injury BRSAG Obs [1, 6] | % Visual Injury BRSAG Obs ([1]; quinclorac 50 g ai/ha alone) | % Visual Injury BRSAG Obs ([1]; quinclorac 100 g ai/ha alone) | % Visual Injury BRSAG Obs ([1]; quinclorac 200 g ai/ha alone) | % Visual Injury Obs ([2]; 50 g ai/ha) | % Visual Injury Obs ([2]; 100 g ai/ha) | % Visual Injury Obs ([2]; 200 g ai/ha) | Obs % visual injury ([2]; partner alone 50 g ai/ha) | Obs % visual injury ([2]; partner alone 100 g ai/ha) | Obs % visual injury ([2]; partner alone 200 g ai/ha) | % Visual Injury BRSNA Obs [2, 6] | % Visual Injury BRSNA Obs ([2]; quinclorac 50 g ai/ha alone) | % Visual Injury BRSNA Obs ([2]; quinclorac 100 g ai/ha alone) | % Visual Injury BRSNA Obs ([2]; quinclorac 200 g ai/ha alone) | % Visual Injury Obs ([3]; 50 g ai/ha) | % Visual Injury Obs ([3]; 100 g ai/ha) | % Visual Injury Obs ([3]; 200 g ai/ha) | Obs % visual injury ([3]; partner alone 50 g ai/ha) | Obs % visual injury ([3]; partner alone 100 g ai/ha) | Obs % visual injury ([3]; partner alone 200 g ai/ha) | % Visual Injury BRSNN Obs [3, 6] | % Visual Injury BRSNN Obs ([3]; quinclorac 50 g ai/ha alone) | % Visual Injury BRSNN Obs ([3]; quinclorac 100 g ai/ha alone) | % Visual Injury BRSNN Obs ([3]; quinclorac 200 g ai/ha alone) | % Visual Injury Obs ([4]; 50 g ai/ha) | % Visual Injury Obs ([4]; 100 g ai/ha) | % Visual Injury Obs ([4]; 200 g ai/ha) | Obs % visual injury ([4]; partner alone 50 g ai/ha) | Obs % visual injury ([4]; partner alone 100 g ai/ha) | Obs % visual injury ([4]; partner alone 200 g ai/ha) | % Visual Injury BRSNW Obs [4, 6] | % Visual Injury BRSNW Obs ([4]; quinclorac 50 g ai/ha alone) | % Visual Injury BRSNW Obs ([4]; quinclorac 100 g ai/ha alone) | % Visual Injury BRSNW Obs ([4]; quinclorac 200 g ai/ha alone) | % Visual Injury Obs ([5]; 50 g ai/ha) | % Visual Injury Obs ([5]; 100 g ai/ha) | % Visual Injury Obs ([5]; 200 g ai/ha) | Obs % visual injury ([5]; partner alone 50 g ai/ha) | Obs % visual injury ([5]; partner alone 100 g ai/ha) | Obs % visual injury ([5]; partner alone 200 g ai/ha) | % Visual Injury BRSNN-NEX Obs [5, 6] | % Visual Injury BRSNN-NEX Obs ([5]; quinclorac 50 g ai/ha alone) | % Visual Injury BRSNN-NEX Obs ([5]; quinclorac 100 g ai/ha alone) | % Visual Injury BRSNN-NEX Obs ([5]; quinclorac 200 g ai/ha alone)
